Results taken from patent US11523995B2, “Compositions and methods for ablating niche cells in testis and other epithelial cells and methods relating thereto” (Duke University, priority 2017, dated 2022).

Assays:
host spermatogenesis = experiment: Donor Sertoli cell transplantation into testis 4 days post BC treatment; assay type: in vivo, mouse; details: 0.02% BC 4 days before Sox9-ECFP Sertoli cell transplantation; 8 weeks after transplantation
Protocol: On the day of transplantation, FACS analysis was used to isolate donor Sertoli cells. Testes of Sox9-CFP mouse pups were dissected. Testicular cells were enzymatically dissociated using 1 mg/ml collagenase type IV for 15 minutes followed by incubation in 0.25% trypsin and 1 mM EDTA for 10 min at 37° C. The reaction was stopped by addition of serum and cells were washed twice. The cell suspension was filtered through a 40 μm nylon mesh and resuspended in 10% FBS+DMEM.
(§1) 10-15 μl of approximately 1×10^6/ml isolated Sertoli cells or 1×10^8/ml (testicular cells) were injected through the rete testis into the seminiferous tubules of a host mouse on day 4 or day 7 after ablation treatment. A glass needle was back-loaded with the cell suspension and 0.04% Trypan blue to track the efficiency of the injection.
To determine whether donor Sertoli cells can efficiently engraft drug-depleted cords, we transplanted Sertoli cells from 6.5-10.5 dpp Sox9-ECFP mouse pups. The host mouse was prepared by injection of the 0.02% BC solution 4 days prior to transplantation. Cells from a neonatal Sox9-ECFP donor testis were dissociated by enzymatic treatment, Sertoli cells were isolated by FACS, and injected into host seminiferous tubules through the rete testis (FIG. 6). […] Full spermatogenesis was detected 8 weeks after transplantation in 2 of 4 engrafted testes.

[1] = system: Sertoli cells from canine testis; experiment: Depletion of canine Sertoli cells in vitro (testis fragment culture); assay type: cell-based; details: cultured 3 days
Protocol: (§2) Fragments of the mouse testis were incubated with 0.02% BC for 10 min. After washing several times with PBS, tissues were placed atop 1.5% agarose blocks (214530; Difco), prepared and placed in 6 well tissue culture plates (353046; Falcon) with ˜500 μl of 10% FBS+DMEM (11995-065; Gibco) to reach halfway up the side of the block. After culture, tissues were washed in PBS and fixed for immunofluorescence. The dog testis tissues were incubated with 0.02% or 0.03% BC for 10 min and cultured with 10% KnockOut Serum Replacement (KSR) (Invitrogen; 10828-028)+DMEM (Yokonishi, T., et al. Methods in Molecular Biology 927: 479-488 (2013)). The culture incubator was supplied with 5% (vol/vol) carbon dioxide in air and maintained at 37° C.
Adult mouse testis and canine testis tissues were fixed in 4% (wt/vol) paraformaldehyde in PBS at 4° C. overnight and cryoembedded in OCT compound (Sakura Finetek). Samples were cut into 14-μm-thick cryosections. Incubation with primary antibodies was performed overnight at 4° C., followed by 2 washes, and incubation with secondary antibodies for 1 h at room temperature. Nuclei were counterstained with Hoechst 33342 dye. Samples were mounted on glass slides and imaged with a confocal laser microscope (Zeiss 780).
We used the same procedure as described for the mouse testis to test whether BC could eliminate Sertoli cells from canine testis. Six to 8 […] canine testis tissues were cut into fragments and incubated with 0.02% or 0.03% BC for 10 min (or PBS as a control), washed, and cultured for 3 days (FIG. 4). At the end of that time, the testis was fixed and stained for immunofluorescence analysis using antibodies against SOX9 and the germ cell marker, MVH (mouse vasa homolog). In control tissue, both Sertoli cells and germ cells were detected in seminiferous tubules. […] In control canine testis, GATA-4 positive PMCs and Leydig cells were detected between tubules.

SSCs = experiment: SSC kinetics after BC treatment in DND1-EGFP mouse; assay type: in vivo
Protocol: Host mice were anesthetized. A glass needle was back-loaded with the drug and 0.02% bromophenol blue to track the success of the injection and extent of delivery into the tissue. The mixture was injected into the rete-testis.
We used a DND1 (dead end homolog 1)-EGFP mouse to investigate SSC kinetics after BC treatment. In this transgenic mouse, all SSCs including undifferentiated SSCs and differentiating spermatogonia express EGFP. 0.02% BC (or PBS control) was injected into seminiferous tubules of adult testis. […] Although Sertoli cells and germ cells were lost in drug affected tubules, cord structure, Leydig cells, and PMCs were normal.

Sertoli cells = experiment: Neonatal testis Sertoli cell selective depletion in vitro (testis tissue culture, immunofluorescence); assay type: cell-based, mouse; details: 0.02% BC 10 min, cultured 4 days
Protocol: as §2
For cultured neonatal mouse testes, whole-mount immunofluorescence analysis was performed. Samples were fixed overnight with 4% (wt/vol) paraformaldehyde in PBS at 4° C. After several washes in PBTx (PBS plus 1% Triton X-100), samples were incubated in blocking solution (1% PBTx plus 10% FBS and 3% BSA) for 1 h at room temperature. Primary antibodies were diluted in blocking solution and applied to samples for 2 days at 4° C. After several washes in 1% PBT, fluorescent secondary antibodies were applied for 2 days at 4° C.
We incubated a neonatal testis in 0.02% BC solution for 10 min (or PBS as a control), washed the testis several times with PBS and cultured for 4 days at the surface/air interface in wells atop an agarose block (FIG. 1). At the end of that time, the testis was fixed and stained for immunofluorescence analysis using an antibody against the Sertoli cell marker, SOX9 (Sry-box 9). […] Although the number of F4/80 positive macrophages was increased in the interstitium of drug treated testis, other cell types in the testis including GFRα1 (GDNF family receptor al) and E-CAD (Cadherin1)-positive SSCs, and 3βHSD (3β-hydroxysteroid dehydrogenase)-positive Leydig cells were spared.

donor spermatogenesis = experiment: Cryopreserved donor testicular cell transplantation into BC treated testis; assay type: in vivo, mouse; details: cryopreserved (39 days) cells transplanted 7 days after BC; eight weeks after transplantation
Protocol: After dissociation and washing steps, samples were placed in 2.0 ml cryovials (Corning, N.Y., USA) containing 500 μl of cryopreservation medium, (10% FBS+DMEM containing 10% DMSO). Samples were placed in a controlled freezing device (Mr. Frosty™ Freezing Container, Thermo Fisher Scientific) and cooled in a −80° C. freezer overnight. The following morning the cryovials were transferred to Liquid nitrogen for storage. Prior to use, samples were thawed quickly in a bath warmed to 37° C.
as §1
To test the efficiency of engraftment using cryopreserved donor tissue, we dissociated testis tissue from CAG-EGFP pups, and cryopreserved cells with cryoprotectant including 10% DMSO in liquid nitrogen. Seven days after BC treatment of wild type host mice, cryopreserved (39 days) donor testicular cells were thawed and introduced into the rete testis (FIG. 8). […] In some tubules, cryopreserved Sertoli cells supported host spermatogenesis, and in other tubules, cryopreserved donor Sertoli cells colonized with donor SSCs and supported donor spermatogenesis.

enteric nerve plexus = details: GI tract treated in vivo; cited from earlier work

## benzalkonium chloride [BC]
Host spermatogenesis
  engrafted testes with full spermatogenesis: 2 of 4
[1]; 0.02% BC 10 min
  Sertoli cell depletion (SOX9): Sertoli cells were depleted, particularly from the peripheral regions of the tissue
[1]; 0.03% BC 10 min
  SSC survival in Sertoli-depleted seminiferous tubules: some SSCs survived
  Sertoli cell depletion (SOX9): all Sertoli cells were absent
  effect on PMCs, SSCs and Leydig cells: caused some PMC depletion, and reduced the number of SSCs and Leydig cells
SSCs; 0.02% BC into seminiferous tubules, three days after Sertoli cells were depleted (7 days post BC)
  SSC loss (DND1-EGFP): SSCs had also disappeared
SSCs; 0.02% BC, 7 days post treatment
  cord structure, Leydig cells and PMCs in drug affected tubules: normal
Sertoli cells
  Sertoli cell elimination (SOX9 immunofluorescence): specifically eliminated Sertoli cells
  effect on other testis cell types (GFRα1 and E-CAD-positive SSCs, 3βHSD-positive Leydig cells): spared
  number of F4/80 positive macrophages in the interstitium: increased
Donor spermatogenesis
  host testes colonized by cryopreserved Sertoli cells and SSCs: 3/3
  hosts with full spermatogenesis from donor cells: 2
Enteric nerve plexus
  removal of enteric nerve plexus: remove the mouse and rat enteric nerve plexus
